Where two headings read alike, the source gives them in different places.
System: Hepatitis B virus (HBV)
Assay: In vitro anti-HBV activity by q-PCR assay of HBV DNA in HepG2.2.15 cell supernatant
Type: cell-based
Experimental: Compound preparation and cell culture: The test compounds were prepared as 20 mM storage solution using the appropriate volume of dimethyl sulfoxide (DMSO) (Sigma-D2650) according to the relative molecular weight and mass.
The growth of HepG2.2.15 cells (Wuhan Institute of Virology, Chinese Academy of Sciences) in the culture flasks were observed under a microscope, the cells were digested with trypsin (Invitrogen-25300062), and resuspended with cell culture medium (DMEM/F12, Invitrogen-11330032; containing 2% fetal bovine serum FBS, HyClone-SV30087.03, 100 U/Ml penicillin, Hyclone-SV30010, 100 μg/mL streptomycin, Hyclone-SV30010, 1% non-essential amino acids, Invitrogen-11140-050, 2 mM L-glutamine, Gibco-35050-061); the cells were counted using a Vi-Cell cell counter and the volume and concentration of cell suspension were adjusted according to the number of cell spreads and the number of cells required per well, and the cell spreading density of the 96-well cell culture plates (Costar-3599) was 60,000 cells/well, 100 μL/well; the cell plates with the cells were placed in a 5% CO2, 37° C. incubator and incubated overnight.
The experiments were set at a starting concentration of 100 μM for the test compound and 20 nM for the reference compound entecavir (ETV, WuXi AppTec), with a 3-fold gradient dilution and 9 concentration points. A 96-well V-bottom plate was used, the corresponding test compounds and reference compounds ETV were diluted to obtain 200× compound source plate; a sterile 2 mL deep-well plate was added with 297 μL of cell culture medium, 3 μL of the compounds in the 200× compound source plate were added to the corresponding deep-well plate, diluted by 100-fold, and mixed well with a pipette tip blowing to obtain a 2× compound plate, and then the plate was sealed with parafilm and then stored in a nitrogen cabinet to be used for replacement of the compounds. The cell plate laid out the day before was took and added with 100 μL of diluted 2× compound to each of the corresponding cell wells with a final concentration of 0.5% DMSO. Example of compound distribution in the cell plate is shown below*:
After the cell plates were reintroduced into a 5% CO2, 37° C. cell incubator for 3 days, the medium was removed from the cell culture plates and 100 μL of cell culture solution was replenished to each well. The 200× compound source plate configured was removed from the nitrogen cabinet, a sterile 2 mL deep-well plate was added with 297 μL of cell culture medium, 3 μL of the compounds in the 200× compound source plate was added to the corresponding deep-well plate, diluted by 100-fold, and mixed well with a pipette tip blowing to obtain a 2× compound plate. To the cell wells containing 100 μL of medium, 100 μL of diluted 2× compound was added, with a final concentration of DMSO of 0.5%; the cell plates were reintroduced into 5% CO2 and incubated in a 37° C. cell incubator for 3 days.
The 96-well cell plate was removed from the incubator, centrifuged at 3,000 rpm for 2 min with centrifuge (Beckman, Allegra-X15R), and the cell supernatant was collected for subsequent HBV DNA extraction. 50 μL of cell culture solution were added to each well in the cell plate, then 50 μL of CellTiter-Glo Detection Reagent (Promega-G7573) were added to each well, and the plate was shaken for 10 min away from light to allow the cells to be lysed; the luminescence value of each well was detected by using an enzyme labeller (BioTek Synergy 2).
HBV DNA Extraction: HBV DNA was extracted from cell supernatants using the QIAamp 96 DNA Blood Kit (Qiagen-51162) as described in the kit instructions; the volume of cell supernatant was 150 μL and the final DNA elution volume was 180 μL. […]

[1] = Hepatitis B virus, 72 h, HepG2.2.15 cells, inhibition of HBV DNA copies in supernatant by qPCR, compound renewed after 3 days, 3 more days, 0.5% DMSO, read-out: EC50
[2] = Hepatitis B virus, HepG2.2.15, 72 h
[3] = HepG2.2.15 cells, inhibition of HBV DNA copies in supernatant by qPCR, compound renewed after 3 days, 3 more days, 0.5% DMSO, read-out: EC50

Row | Compound | EC50 [1] [nM] | also measured
1 | C#Cc1cc(F)ccc1C1N=C(c2nccs2)NC(CN2CCN3C(=O)N(CC(C)(C)C(=O)O)C[C@@H]3C2)=C1C(=O)OCC (mixture of isomers) [SZ-023089RAC] | < 50 | –
2 | C#Cc1cc(F)ccc1C1N=C(c2nccs2)NC(CN2[C@@H]3C[C@H](CC(=O)O)C[C@H]2C(F)(F)C3)=C1C(=O)OCC (mixture of isomers) [SZ-023091RAC] | – | EC50 [2]: < 50 nM
3 | C#Cc1cc(F)ccc1C1N=C(c2nccs2)NC(CN2CCO[C@H](/C=C/C(=O)O)C2)=C1C(=O)OCC (mixture of isomers) [SZ-023093RAC] | < 50 | –
4 | C#Cc1cc(F)ccc1C1N=C(c2nccs2)NC(CN2CCO[C@H](CCC(=O)O)C2)=C1C(=O)OCC (mixture of isomers) [SZ-023095RAC] | 50 to 100 | –
5 | C#Cc1cc(F)ccc1C1N=C(c2nccs2)NC(CN2CCOCC2)=C1C(=O)OCC (racemic) [SZ-023115RAC] | < 50 | –
6 | CCOC(=O)C1=C(CN2CCOCC2)NC(c2nccs2)=NC1c1ccc(F)cc1C#N (racemic) [SZ-023117RAC] | 50 to 100 | –
7 | C#Cc1c(F)cccc1[C@@H]1N=C(c2nccs2)NC(CN2[C@@H]3C[C@H](CC(=O)O)C[C@H]2C(F)(F)C3)=C1C(=O)OCC [SZ-023085C] | – | EC50 [2]: < 50 nM
8 | C#Cc1cc(F)ccc1[C@H]1N=C(c2nccs2)NC(CN2CCN3C(=O)N(CC(C)(C)C(=O)O)C[C@@H]3C2)=C1C(=O)OCC [SZ-023089] | – | EC50 [3]: < 50 nM
9 | C#Cc1cc(F)ccc1[C@@H]1N=C(c2nccs2)NC(CN2[C@@H]3CC(CC(=O)O)C[C@H]2C(F)(F)C3)=C1C(=O)OCC (some centres unmarked) [SZ-023091C] | – | EC50 [2]: < 50 nM
10 | C#Cc1cc(F)ccc1[C@H]1N=C(c2nccs2)NC(CN2[C@@H]3CC(CC(=O)O)C[C@H]2C(F)(F)C3)=C1C(=O)OCC (some centres unmarked) [SZ-023091] | – | EC50 [3]: < 50 nM
11 | C#Cc1cc(F)ccc1[C@@H]1N=C(c2nccs2)NC(CN2CCO[C@H](/C=C/C(=O)O)C2)=C1C(=O)OCC [SZ-023093] | – | EC50 [3]: < 50 nM
12 | C#Cc1cc(F)ccc1[C@H]1N=C(c2nccs2)NC(CN2CCO[C@H](CCC(=O)O)C2)=C1C(=O)OCC [SZ-023095] | – | EC50 [3]: < 50 nM
13 | C#Cc1cc(F)ccc1[C@@H]1N=C(c2nccs2)NC(CN2CCOCC2)=C1C(=O)OCC [SZ-023115-P1] | – | EC50 [3]: > 1000 nM
14 | C#Cc1cc(F)ccc1[C@H]1N=C(c2nccs2)NC(CN2CCOCC2)=C1C(=O)OCC [SZ-023115-P2] | – | EC50 [3]: < 50 nM
15 | C#Cc1c(C2N=C(c3nccs3)NC(CN3CCN4C(=O)N(CC(C)(C)C(=O)O)C[C@@H]4C3)=C2C(=O)OCC)ccc(F)c1F (some centres unmarked) [SZ-023127] | < 50 | –
16 | C#Cc1cc(F)c(F)cc1[C@@H]1N=C(c2nccs2)NC(CN2CCN3C(=O)N(CC(C)(C)C(=O)O)C[C@@H]3C2)=C1C(=O)OCC [SZ-023129] | 100 to 1000 | –

Row | Compound | EC50 [1] [nM] | also measured
17 | [2H]C([2H])([2H])C([2H])([2H])OC(=O)C1=C(CN2CCN3C(=O)N(CC(C)(C)C(=O)O)C[C@@H]3C2)NC(c2nccs2)=N[C@H]1c1cccc(F)c1C#C [SZ-023133] | < 50 | –
18 | [2H]C([2H])([2H])OC(=O)C1=C(CN2CCO[C@H](/C=C/C(=O)O)C2)NC(c2nccs2)=N[C@H]1c1ccc(F)cc1C#C [SZ-023143] | < 50 | –
19 | C#Cc1cc(F)ccc1[C@@H]1N=C(c2nccs2)NC(CN2CCN3C(=O)N(CC(C)(C)C(=O)O)C[C@@H]3C2)=C1C(=O)OC [SZ-023145] | < 50 | –
20 | [2H]C([2H])([2H])OC(=O)C1=C(CN2CCN3C(=O)N(CC(C)(C)C(=O)O)C[C@@H]3C2)NC(c2nccs2)=N[C@H]1c1ccc(F)cc1C#C [SZ-023147] | < 50 | –
21 | [2H]C([2H])([2H])C([2H])([2H])OC(=O)C1=C(CN2CCN3C(=O)N(CC(C)(C)C(=O)O)C[C@@H]3C2)NC(c2nccs2)=N[C@H]1c1ccc(F)cc1C#C [SZ-023149] | < 50 | –
22 | C#Cc1cc(F)ccc1[C@@H]1N=C(c2nccs2)NC(CN2CCN3C(=O)N(CC(C)(C)C(=O)O)C[C@@H]3C2)=C1C(=O)SC [SZ-023151] | 100 to 1000 | –
23 | C#Cc1cc(F)ccc1[C@@H]1N=C(c2nccs2)NC(CN2CCO[C@H](C3CC3C(=O)O)C2)=C1C(=O)OCC (some centres unmarked) [SZ-023342] | 50 to 100 | –
24 | C#Cc1cc(Cl)ccc1C1N=C(c2nccs2)NC(CN2CCN3C(=O)N(CC(C)(C)C(=O)O)C[C@@H]3C2)=C1C(=O)OCC (some centres unmarked) [SZ-023366] | < 50 | –
25 | C#Cc1cc(C)ccc1C1N=C(c2nccs2)NC(CN2CCN3C(=O)N(CC(C)(C)C(=O)O)C[C@@H]3C2)=C1C(=O)OCC (some centres unmarked) [SZ-023368] | 100 to 1000 | –
26 | C#Cc1ccccc1C1N=C(c2nccs2)NC(CN2CCN3C(=O)N(CC(C)(C)C(=O)O)C[C@@H]3C2)=C1C(=O)OCC (some centres unmarked) [SZ-023370] | 50 to 100 | –
27 | C#Cc1cc(Cl)ccc1C1N=C(c2nccs2)NC(CN2CCN3C(=O)N(c4ccc(CCC(=O)O)cc4)C[C@@H]3C2)=C1C(=O)OCC (some centres unmarked) [SZ-023380] | < 50 | –
28 | C#Cc1cc(F)ccc1[C@@H]1N=C(c2nccs2)NC(CN2CCN3C(=O)N(c4ccc(CCC(=O)O)cc4)C[C@@H]3C2)=C1C(=O)OCC [SZ-023384] | < 50 | –
29 | C#Cc1c(F)cccc1[C@@H]1N=C(c2nccs2)NC(CN2CCN3C(=O)N(c4ccc(CCC(=O)O)cc4)C[C@@H]3C2)=C1C(=O)OCC [SZ-023386] | < 50 | –
30 | C#Cc1cc(F)ccc1[C@@H]1N=C(c2nccs2)NC(CN2CCN3C(=O)N(c4ccc(C(=O)O)c(F)c4)C[C@@H]3C2)=C1C(=O)OCC [SZ-023388] | < 50 | –
31 | C#Cc1c(F)cccc1[C@@H]1N=C(c2nccs2)NC(CN2CCN3C(=O)N(c4ccc(C(=O)O)c(F)c4)C[C@@H]3C2)=C1C(=O)OCC [SZ-023390] | < 50 | –
32 | C#Cc1cc(F)ccc1[C@@H]1N=C(c2nccs2)NC(CN2CCN3C(=O)N(CC(C)(C)CC(=O)O)C[C@@H]3C2)=C1C(=O)OCC [SZ-023392] | < 50 | –
